One data set concerns the target T1, PDE4B2 (Homo sapiens, UniProt Q07343).
T1 construct: made in house; host or cells: SF21 insect cells (baculovirus generated in SF9 cells, pCR-Bac vector)
Put plainly: Inhibition of PDE4B2 activity, modified [3H]cAMP SPA (scintillation proximity assay) test. Particulars: recombinant PDE4B2 expressed in SF21 insect cells; 0.5 μM cAMP; 15 min at 37° C.; read-out: PDE4 Inhibition [measured as -logIC50 (mol/l)] (converted). Format: biochemical. Here is the method:
PDE4B2 (GB no. M97515) was a gift of Prof. M. Conti (Stanford University, USA). It was amplified from the original plasmid (pCMV5) via PCR with primers Rb9 (5′-[…]-3′) and Rb10 (5′-[…]-3′) and cloned into the pCR-Bac vector (Invitrogen, Groningen, NL).
The recombinant baculovirus was prepared by means of homologous recombination in SF9 insect cells. The expression plasmids were cotransfected with Bac-N-Blue (Invitrogen, Groningen, NL) or Baculo-Gold DNA (Pharmingen, Hamburg) using a standard protocol (Pharmingen, Hamburg). Wt vrus-free recombinant virus supernatants were selected using plaque assay methods. After that, high-titre virus supernatants were, prepared by amplifying 3 times. PDE4B2 was expressed in SF21 cells by infecting 2×10^6 cells/ml with an MOI (multiplicity of infection) between 1 and 10 in serum-free SF900 medium (Life Technologies, Paisley, UK). The cells were cultured at 28° C. for 48-72 hours, after which they were pelleted for 5-10 min at 1000 g and 4° C.
The SF21 insect cells were resuspended, at a concentration of approx. 10^7 cells/ml, in ice-cold (4° C.) homogenization buffer (20 mM Tris, pH 8.2, containing the following additions: 140 mM NaCl, 3.8 mM KCl, 1 mM EGTA, 1 mM MgCl2, 10 mM β-mercaptoethanol, 2 mM benzamidine, 0.4 mM Pefablock, 10 μM leupeptin, 10 μM pepstatin A, 5 μM trypsin inhibitor) and disrupted by ultrasonication. The homogenate was then centrifuged for 10 min at 1000×g and the supernatant was stored at −80° C. until sub-sequent use (see below). The protein content was determined by the Bradford method (BioRad, Munich) using BSA as the standard.
PDE4B2 activity was inhibited by the compounds according to the invention in a modified SPA (scintillation proximity assay) test, supplied by Amersham Biosciences (see procedural instructions “phosphodiesterase [3H]cAMP SPA enzyme assay, code TRKQ 7090”), carried out in 96-well microtitre plates (MTP's). The test volume is 100 μl and contains 20 mM Tris buffer (pH 7.4), 0.1 mg of BSA (bovine serum albumin)/ml, 5 mM Mg^2+, 0.5 μM cAMP (including about 50,000 cpm of [3H]cAMP), 1 μl of the respective substance dilution in DMSO and sufficient recombinant PDE (1000×g supernatant, see above) to ensure that 10-20% of the cAMP is converted under the said experimental conditions. […] After a preincubation of 5 min at 37° C., the reaction is started by adding the substrate (cAMP) and the assays are incubated for a further 15 min; after that, they are stopped by adding SPA beads (50 μl). In accordance with the manufacturer's instructions, the SPA beads had previously been resuspended in water, but were then diluted 1:3 (v/v) in water; the diluted solution also contains 3 mM IBMX to ensure a complete PDE activity stop. After the beads have been sedimented (>30 min), the MTP's are analyzed in commercially available luminescence detection devices. The corresponding IC50 values of the compounds for the inhibition of PDE4B2 activity are determined from the concentration-effect curves by means of non-linear regression.

One may read the melting point as the temperature of the solid-liquid transition.

T1 sequence (Q07343 1-564 isoform Q07343-2): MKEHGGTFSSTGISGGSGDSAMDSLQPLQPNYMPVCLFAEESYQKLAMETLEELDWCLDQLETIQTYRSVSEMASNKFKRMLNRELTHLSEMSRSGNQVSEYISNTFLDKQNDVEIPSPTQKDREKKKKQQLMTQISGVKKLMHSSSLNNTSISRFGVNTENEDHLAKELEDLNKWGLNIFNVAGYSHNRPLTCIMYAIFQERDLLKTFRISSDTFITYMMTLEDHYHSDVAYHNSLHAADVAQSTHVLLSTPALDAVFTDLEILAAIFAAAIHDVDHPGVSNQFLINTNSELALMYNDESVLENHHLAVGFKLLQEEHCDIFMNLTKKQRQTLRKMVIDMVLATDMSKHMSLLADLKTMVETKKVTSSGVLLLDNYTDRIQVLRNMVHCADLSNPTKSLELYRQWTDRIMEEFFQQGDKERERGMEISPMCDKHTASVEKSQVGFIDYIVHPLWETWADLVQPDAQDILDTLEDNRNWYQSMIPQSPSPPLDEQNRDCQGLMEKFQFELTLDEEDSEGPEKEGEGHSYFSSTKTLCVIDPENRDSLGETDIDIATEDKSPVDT

Consider `COc1ccc(C2=NN(C3CCN(CC(N)=O)CC3)C(=O)C(C)(C)C2)c2c1OC(C)(C)C2` [Compound 13, 2-{4-[3-(7-Methoxy-2,2-dimethyl-2,3-dihydro-benzofuran-4-yl)-5,5-dimethyl-6-oxo-5,6-dihydro-4H-pyridazin-1-yl]-piperidin-1-yl}-acetamide], for which the melting point fell in the range of 215 to 216 °C. Also, the IC50 at PDE4B2 was 0.417 nM.
Take `COc1ccc(C2=NN(C3CCN(S(=O)(=O)c4ccc(C#N)cc4)CC3)C(=O)C(C)(C)C2)cc1OC` [Compound 6, 4-{4-[3-(3,4-Dimethoxy-phenyl)-5,5-dimethyl-6-oxo-5,6-dihydro-4H-pyridazin-1-yl]-piperidine-1-sulfonyl}-benzonitrile]: the melting point is 161 to 163 °C.
Take `COc1ccc(C2=NN(C3CCN(C(=O)CN4C(=O)CCC4=O)CC3)C(=O)C(C)(C)C2)cc1OC` [Compound 4, 1-(2-{4-[3-(3,4-Dimethoxy-phenyl)-5,5-dimethyl-6-oxo-5,6-dihydro-4H-pyridazin-1-yl]-piperidin-1-yl}-2-oxo-ethyl)-pyrrolidine-2,5-dione]: the melting point is 177 to 179 °C. Also, the IC50 at PDE4B2 was 1.29 nM.
Taken in the same sequence, the figures for `CCC1(CC)CC(c2ccc(OC)c(OC)c2)=NN(C2CCN(S(=O)(=O)c3ccccc3C#N)CC2)C1=O` [Compound 16, 2-{4-[3-(3,4-Dimethoxy-phenyl)-5,5-diethyl-6-oxo-5,6-dihydro-4-pyridazin-1-yl]-piperidin-1-sulfonyl}-benzonitrile] were 156 to 157 °C and 0.355 nM.
Taken in the same sequence, the figures for `COc1ccc(C2=NN(C3CCN(S(=O)(=O)c4ccccc4C#N)CC3)C(=O)C(C)(C)C2)cc1OC` [Compound 1] were 190 to 192 °C and 0.295 nM.
Taken in the same sequence, the figures for `COc1ccc(C2=NN(C3CCN(C(=O)CN4C(=O)COCC4=O)CC3)C(=O)C(C)(C)C2)cc1OC` [Compound 17, 4-(2-{4-[3-(3,4-Dimethoxy-phenyl)-5,5-dimethyl-6-oxo-5,6-dihydro-4H-pyridazin-1-yl]-piperidin-1-yl}-2-oxo-ethyl)-morpholine-3,5-dione] were 210 to 211 °C and 0.646 nM.
For `CCC1(CC)CC(c2ccc(OC)c(OC)c2)=NN(C2CCN(C(=O)c3ccccc3OC)CC2)C1=O` [Compound 18, 6-(3,4-Dimethoxy-phenyl)-4,4-diethyl-2-{1-[1-(2-methoxy-phenyl)-methanoyl]-piperidin-4-yl}-4,5-dihydro-2H-pyridazin-3-one], the melting point fell in the range of 160 to 162 °C.
`COc1ccc(C2=NN(C3CCN(C(=O)c4ccccc4OC)CC3)C(=O)C(C)(C)C2)cc1OC` [Compound 8, 6-(3,4-Dimethoxy-phenyl)-2-{1-[1-(2-methoxy-phenyl)-methanoyl]-piperidin-4-yl}-4,4-dimethyl-4,5-dihydro-2H-pyridazin-3-one]: the melting point lay within 157 to 159 °C. For the same compound, on PDE4B2, the IC50 is 0.209 nM.
Compound `COc1ccc(C2=NN(C3CCN(C(=O)CN4CCN(C)CC4)CC3)C(=O)C(C)(C)C2)c2c1OC(C)(C)C2` [Compound 19, 6-(7-Methoxy-2,2-dimethyl-2,3-dihydro-benzofuran-4-yl)-4,4-dimethyl-2-{1-[2-(4-methyl-piperazin-1-yl)-ethanoyl]-piperidin-4-yl}-4,5-dihydro-2H-pyridazin-3-one] registered a melting point of 121 to 123 °C.
On the same count and under the same terms, then `COc1ccc(C2=NN(C3CCN(S(=O)(=O)c4cccc(C)c4)CC3)C(=O)C(C)(C)C2)cc1OC` [Compound 11, 6-(3,4-Dimethoxy-phenyl)-4,4-dimethyl-2-[1-(toluene-3-sulfonyl)-piperidin-4-yl]-4,5-dihydro-2H-pyridazin-3-one], with 150 to 152 °C.
Still for that read-out and setting: then `CCC1(CC)CC(c2ccc(OC)c(OC)c2)=NN(C2CCN(C(=O)c3ccccc3)CC2)C1=O` [Compound 14, 6-(3,4-Dimethoxy-phenyl)-4,4-diethyl-2-[1-(1-phenyl-methanoyl)-piperidin-4-yl]-4,5-dihydro-2H-pyridazin-3-one], with 160 to 161 °C; and `COc1ccc(C2=NN(C3CCN(C(=O)CN4C(=O)CCC4=O)CC3)C(=O)C(C)(C)C2)c2c1OC(C)(C)C2` [Compound 20, 1-(2-{4-[3-(7-Methoxy-2,2-dimethyl-2,3-dihydro-benzofuran-4-yl)-5,5-dimethyl-6-oxo-5,6-dihydro-4H-pyridazin-1-yl]-piperidin-1-yl}-2-oxo-ethyl)-pyrrolidine-2,5-dione], with 240 to 241 °C.
Compound `COc1ccc(C2=NN(C3CCN(S(=O)(=O)c4ccccc4OC(F)(F)F)CC3)C(=O)C(C)(C)C2)cc1OC` [Compound 7, 6-(3,4-Dimethoxy-phenyl)-4,4-dimethyl-2-[1-(2-trifluoromethoxy-benzenesulfonyl)-piperidin-4-yl]-4,5-dihydro-2H-pyridazin-3-one] had a melting point of 143 to 144 °C. In addition, the IC50 at PDE4B2 was 2.29 nM.
Consider `COc1ccc(C2=NN(C3CCN(S(=O)(=O)N(C)C)CC3)C(=O)C(C)(C)C2)cc1OC` [Compound 12, 4-[3-(3,4-Dimethoxy-phenyl)-5,5-dimethyl-6-oxo-5,6-dihydro-4H-pyridazin-1-yl]-piperidine-1-sulfonic Acid Dimethylamide], for which the melting point lay within 172 to 174 °C.
Still for that read-out and setting: the figure for `COc1ccc(C2=NN(C3CCN(S(=O)(=O)c4ccc(C)cc4)CC3)C(=O)C(C)(C)C2)cc1OC` [Compound 10, 6-(3,4-Dimethoxy-phenyl)-4,4-dimethyl-2-[1-(toluene-4-sulfonyl)-piperidin-4-yl]-4,5-dihydro-2H-pyridazin-3-one] is 161 to 164 °C.
On to `CCC1(CC)CC(c2ccc(OC)c(OC)c2)=NN(C2CCN(CC(N)=O)CC2)C1=O.Cl` [Compound 15, 2-{4-[3-(3,4-Dimethoxy-phenyl)-5,5-diethyl-6-oxo-5,6-dihydro-4H-pyridazin-1-yl]-piperidin-1-yl}-acetamide Hydrochloride], for which the melting point was 69 to 74 °C. Besides, the IC50 at PDE4B2 was 6.17 nM.
Turning to `COc1ccc(C2=NN(C3CCN(CC(N)=O)CC3)C(=O)C(C)(C)C2)cc1OC` [Compound 3], the IC50 on PDE4B2 is 1.86 nM.
In turn, `COc1ccc(C2=NN(C3CCN(S(=O)(=O)c4cccc(C#N)c4)CC3)C(=O)C(C)(C)C2)cc1OC` [Compound 9, 3-{4-[3-(3,4-Dimethoxy-phenyl)-5,5-dimethyl-6-oxo-5,6-dihydro-4H-pyridazin-1-yl]-piperidine-1-sulfonyl}-benzonitrile] showed a melting point of 158 to 160 °C.
On the same count and under the same terms, then `COc1ccc(C2=NN(C3CCN(C(=O)CN4C(=O)c5ccccc5C4=O)CC3)C(=O)C(C)(C)C2)cc1OC` [Compound 21, 2-(2-{4-[3-(3,4-Dimethoxy-phenyl)-5,5-dimethyl-6-oxo-5,6-dihydro-4H-pyridazin-1-yl]-piperidin-1-yl}-2-oxo-ethyl)-isoindole-1,3-dione], with 193 to 194 °C.
As for `COc1ccc(C2=NN(C3CCN(CCC(=O)N4CCOCC4)CC3)C(=O)C(C)(C)C2)cc1OC.Cl` [Compound 2, 6-(3,4-Dimethoxy-phenyl)-4,4-dimethyl-2-[1-(3-morpholin-4-yl-3-oxo-propyl)piperidin-4-yl]-4,5-dihydro-2H-pyridazin-3-one Hydrochloride], the melting point was in the range of 211 to 213 °C. Moreover, the IC50 on PDE4B2 was 25.1 nM.
Taken in the same sequence, the figures for `COc1ccc(C2=NN(C3CCN(S(=O)(=O)c4ccccc4C)CC3)C(=O)C(C)(C)C2)cc1OC` [Compound 5, 6-(3,4-Dimethoxy-phenyl)-4,4-dimethyl-2-[1-(toluene-2-sulfonyl)-piperidin-4-yl]-4,5-dihydro-2H-pyridazin-3-one] were 132 to 133 °C and 0.741 nM.

For the origin of these results see patent US7820669B2 (NYCOMED GmbH, priority 2004, dated 2010).
